The subject of the assay is 786-O (renal cell carcinoma) cells. Description: Cell viability (CellTiter Glo) assay, inhibition of 786-O cell proliferation. The assay is classed as cell-based. Particulars: read-out: IC50, inhibition of 786-O cell proliferation. On the technique in general: Cellular ATP, detected with luciferase, serves as a proxy for viable cell number.
Setting [1] is: Homo sapiens, 786-0, 786-O cells, 72 hours, CellTiter Glo.

The structures appear in SMILES notation. Like-named read-outs stand apart in the source and are kept apart here. A value given as a limit tells only on which side of the number the result lay.

For the molecule `CNc1nc(COC(=N)N2CCC[C@@H]2C(F)(F)F)nc2c(-c3ccc(N4CCOCC4)cc3OC)coc12` [Compound E184, (7-(2-Methoxy-4-morpholinophenyl)-4-(methylamino)furo[3,2-d]pyrimidin-2-yl)methyl (R)-2-(trifluoromethyl)pyrrolidine-1-carbimidate], the IC50 under setting [1] was less than 100 nM.
On the same count and under the same terms, for `CC1(C)C(=O)N(c2ccc(N3CCC4(CC3)CC4)nc2)c2nc(COC(=N)N3CCC[C@@H]3C(F)(F)F)nc(N)c21` [Compound E70] the value was less than 100 nM; for `CCCC[C@H]1Cc2cc(OC)ccc2[C@H](c2ccc(F)cc2)N1C(=O)CO/C(=N\CCCN(C)C)NCC` [Compound A3], more than 5000 nM.
As to `CCN(C(=N)OCc1nc(N)nc(Nc2ccc(Oc3ccccc3)cc2)n1)c1ccncc1` [Compound F41], the IC50 under setting [1] was less than 100 nM.
Same read-out and setting: for `CNc1nc(COC(=N)N2CCC[C@@H]2C(F)(F)F)nc2c1C(C)(C)C(=O)N2c1cnc2c(C(C)C)cnn2c1` [Compound E67] the value was less than 100 nM.
Turning to `CNc1nc([C@@H](C)OC(=N)N2CCC[C@@H]2C(F)(F)F)nc2c1C(C)(C)C(=O)N2c1ccc(N2CCOCC2)cc1` [Compound E181], the IC50 (786-O cells, 72 hours, CellTiter Glo) was more than 5000 nM.
Turning to `CCN(CC(F)(F)F)C(=N)OCc1nccc(Nc2ccc(Oc3ccccc3)cc2)n1` [Compound F40], the IC50 under setting [1] is 100 to 500 nM.
On to `CC(C)N(CC(F)(F)F)C(=N)OCc1ncc2c(n1)N(c1ccc(N3CCOCC3)nc1)CC21CC1` [Compound E141], for which, under setting [1], the IC50 was in the range of 100 to 500 nM.
Regarding `C[C@@H]1CN(c2ncc(N3C(=O)C(C)(C)c4c(N)nc(COC(=N)N5CCC[C@@H]5C(F)(F)F)nc43)cn2)C[C@H](C)O1` [Compound E105], under setting [1], the IC50 is less than 100 nM.
For `CNc1nc(COC(=N)N2CCC[C@@H]2C(F)(F)F)nc2c1C1(CCCC1)C(=O)N2c1cnc(C2=CCOCC2)nc1` [Compound E95], the IC50 under setting [1] is less than 100 nM.
Still for that read-out and setting: then `N=C(OCc1nc(N)c2c(n1)N(c1ccc(F)c(F)c1)C(=O)C21CCCC1)N1CCC[C@@H]1C(F)(F)F` [Compound E209], with less than 100 nM; and `N=C(OCc1ncc2c(n1)N(c1ccc(N3CCOCC3)cc1)C(=O)C21CCCC1)N1CCC[C@@H]1C(F)(F)F` [Compound E72], with less than 100 nM.
As for `N=C(OCc1nc(N)nc(Nc2ccc(Oc3ccccc3)cc2)n1)N1CCCCO1` [Compound F43], the IC50 (Homo sapiens, 786-0, 72 h) is 100 to 500 nM.
As for `CC(C)N(CC(F)(F)F)C(=N)OCc1ncc2c(n1)N(c1ccc(N3CCOCC3)cc1)C(=O)C21CC1` [Compound E162], the IC50 under setting [1] lay within 500 to 5000 nM.
In the case of `CC(C)N(CC(F)(F)F)C(=N)OCc1ncc2c(n1)N(c1ccc(OC3CC3)nc1)C(=O)C21CC1` [Compound E139], the IC50 under setting [1] was 500 to 5000 nM.
On the same count and under the same terms, for `CNc1nc(COC(=N)N2CCC[C@H]2C(F)(F)F)nc2c1C1(CCCC1)C(=O)N2c1cnc(N2C[C@@H](C)O[C@@H](C)C2)nc1` (relative stereo) [Compound E103] the value was 100 to 500 nM; for `CNc1nc(COC(=N)N2CCC[C@@H]2C(F)(F)F)nc2c1C1(CCCC1)C(=O)N2c1cnc(C2CC(C)(C)OC(C)(C)C2)nc1` [Compound E102], 100 to 500 nM; for `N=C(OCc1nc(NC2CC2)c2c(n1)N(c1cnc(N3CCC(F)(F)CC3)nc1)C(=O)C21CCCC1)N1CCC[C@@H]1C(F)(F)F` [Compound E112], less than 100 nM.
For the molecule `CC(C)N(CC(F)(F)F)C(=N)OCc1ncc2c(n1)N(c1ccc(N3CCCCC3)nc1)C(=O)C21CC1` [Compound E150], the IC50 under setting [1] fell in the range of 100 to 500 nM.
With `CCCCCCOc1ccc(N2C(=O)C3(CC3)c3cnc(COC(=N)N(CC(F)(F)F)C(C)C)nc32)cc1` [Compound E164], the IC50 under setting [1] is less than 100 nM.
Still for that read-out and setting: for `CC1(C)CN(c2ccc(Oc3ccccc3)cc2)c2nc(COC(=N)NC34CC5CC(CC(C5)C3)C4)nc(N)c21` [Compound E3] the value was 100 to 500 nM; for `CC(C)Oc1ccc(N2C(=O)C3(CC3)c3cnc(COC(=N)N(CC(F)(F)F)C(C)C)nc32)cn1` [Compound E133], 500 to 5000 nM; for `CC(C)N(CC(F)(F)F)C(=N)OCc1ncc2c(n1)N(c1ccc(O)cc1)C(=O)C21CC1` [Compound E165], more than 5000 nM.
Consider `CNc1nc(COC(=N)N2CCC(F)(F)CC2)nc2c1C(C)(C)CN2c1ccc(Oc2ccccc2)cc1` [Compound E7, (5,5-dimethyl-4-(methylamino)-7-(4-phenoxyphenyl)-6,7-dihydro-5H-pyrrolo[2,3-d]pyrimidin-2-yl)methyl 4,4-difluoropiperidine-1-carbimidate], for which the IC50 under setting [1] was less than 100 nM.
As for `CCN(C(=N)OCc1nc(N)nc(Nc2ccc(Oc3ccccc3)cc2)n1)c1ccccn1` [Compound F42], under setting [1], the IC50 was less than 100 nM.
On to `N=C(OCc1nc(NCC(F)(F)F)c2c(n1)N(c1cc(F)c3c(c1)CCO3)C(=O)C21CCCC1)N1CCC[C@@H]1C(F)(F)F` [Compound E61], for which the IC50 under setting [1] was less than 100 nM.
Consider `CCN(CC(F)(F)F)C(=N)OCc1ncc2c(n1)N(c1ccc(Oc3ccccc3)cc1)CC2(C)C` [Compound E9], for which the IC50 under setting [1] was less than 100 nM.
Same read-out and setting: then `N=C(OCc1nc(N)c2c(n1)N(c1cnc(N3CCC(F)(F)CC3)nc1)C(=O)C21CCCC1)N1CCC[C@@H]1C(F)(F)F` [Compound E84], with less than 100 nM; and `N=C(OCc1nc(N)c2c(n1)N(c1cnc(N3CCC(F)(F)C3)nc1)C(=O)C21CCCC1)N1CCC[C@@H]1C(F)(F)F` [Compound E82], with less than 100 nM.
Regarding `CC(C)N(CC(F)(F)F)C(=N)OCc1nc(N)nc(Nc2ccc(Oc3ccccc3)cc2)n1` [Compound F8], the IC50 (Homo sapiens, 786-0, 72 h) was less than 100 nM.
Turning to `CNc1nc(COC(=N)N2CCCC2C(F)(F)F)nc2c1C(C)(C)C(=O)N2c1ccc(OC2CCCCC2)cc1` (stereo not drawn) [Compound E173], the IC50 under setting [1] was less than 100 nM.
In the case of `N=C(OCc1nc(NC2CC2)c2c(n1)N(c1ccc(F)c(F)c1)C(=O)C21CCCC1)N1CCC[C@@H]1C(F)(F)F` [Compound E205], the IC50 under setting [1] was less than 100 nM.
On to `N=C(OCc1nc(N)c2c(n1)N(c1cnc(N3CC4CC3CO4)nc1)C(=O)C21CCCC1)N1CCC[C@@H]1C(F)(F)F` (stereo partly drawn) [Compound E98], for which the IC50 under setting [1] is 500 to 5000 nM.
Turning to `CC(C)Nc1nc(COC(=N)N2CCC[C@@H]2C(F)(F)F)nc2c1C1(CCCC1)C(=O)N2c1ccc(F)c(F)c1` [Compound E212], for the setting “Homo sapiens, 786-0, 72 h”, the IC50 was less than 100 nM.
Still for that read-out and setting: for `CC(C)N(CC(F)(F)F)C(=N)OCc1ncc2c(n1)N(c1ccc(Oc3ccccc3)cc1)CCO2` [Compound E125] the value was 500 to 5000 nM.
`CNc1nc(COC(=N)N2CCC[C@@H]2C(F)(F)F)nc2c1C(C)(C)C(=O)N2c1ccc(N2CCOCC2)cc1` [Compound E114]: the IC50 under setting [1] is less than 100 nM.
Turning to `C[C@@H]1CN(c2ccc(N3C(=O)C(C)(C)c4c(NCC(F)(F)F)nc(COC(=N)N5CCC[C@@H]5C(F)(F)F)nc43)cc2F)C[C@H](C)O1` [Compound E50], under setting [1], the IC50 is less than 100 nM.
`CCN(CC(F)(F)F)C(=N)OCc1cc(Nc2ccc(Oc3ccccc3)cc2)ncn1` [Compound F39]: the IC50 under setting [1] was in the range of 500 to 5000 nM.
`C[C@@H]1CN(c2ccc(N3C(=O)C(C)(C)c4c(NCC(F)F)nc(COC(=N)N5CCC[C@@H]5C(F)(F)F)nc43)cc2)C[C@H](C)O1` [Compound E203]: the IC50 (Homo sapiens, 786-0, 72 h) is 100 to 500 nM.
With `CNc1nc(COC(=N)N2CC(F)(F)C[C@@H]2C)nc2c1C(C)(C)C(=O)N2c1ccc(N2C[C@@H](C)O[C@@H](C)C2)nc1` [Compound E116], under setting [1], the IC50 was 100 to 500 nM.
`COc1cc(N2CCOCC2)ccc1N1CC(C)(C)c2c(NCC(F)(F)F)nc(COC(=N)N3CCC[C@@H]3C(F)(F)F)nc21` [Compound E16]: under setting [1], the IC50 was less than 100 nM.
On the same count and under the same terms, then `CC(C)N(CC(F)(F)F)C(=N)OCc1ncc2c(n1)N(c1ccc(N3CCOCC3)nc1)CC2(C)C` [Compound E129], with 100 to 500 nM; and `CC1(C)C(=O)N(c2ccc(N3CCCCC3)cc2)c2nc(COC(=N)N3CCC[C@@H]3C(F)(F)F)nc(NCC(F)(F)F)c21` [Compound E49], with less than 100 nM.
The same measure, in the same setting: for `N=C(OCc1nc(NC2CC2)c2c(n1)N(c1ccc(N3CCOCC3)cc1)C(=O)C21CCCCC1)N1CCC[C@@H]1C(F)(F)F` [Compound E71] the value was less than 100 nM.
For `CC(C)Nc1nc(COC(=N)N2CCC[C@@H]2C(F)(F)F)nc2c1C1(CCCC1)C(=O)N2c1cnc(N2CCCCC2)nc1` [Compound E211], the IC50 (Homo sapiens, 786-0, 72 h) is less than 100 nM.
For `CN(CC(F)(F)F)C(=N)OCc1ncc2c(n1)N(c1ccc(Oc3ccccc3)cc1)CC2(C)C` [Compound E136], the IC50 under setting [1] is less than 100 nM.
As to `N=C(OCc1nc(NC2CC2)c2c(n1)N(c1ccc(N3CCOCC3)c(F)c1)C(=O)C21CCCCC1)N1CCC[C@@H]1C(F)(F)F` [Compound E73], the IC50 under setting [1] is less than 100 nM.
In the case of `[2H]C([2H])([2H])Nc1nc(COC(=N)N2CCC[C@@H]2C(F)(F)F)nc2c1C(C)(C)C(=O)N2c1ccc(N2C[C@@H](C)O[C@@H](C)C2)nc1` [Compound E187, (7-(6-((2S,6R)-2,6-Dimethylmorpholino)pyridin-3-yl)-5,5-dimethyl-4-((methyl-d3)amino)-6-oxo-6,7-dihydro-5H-pyrrolo[2,3-d]pyrimidin-2-yl)methyl (R)-2-(trifluoromethyl)pyrrolidine-1-carbimidate], the IC50 under setting [1] fell in the range of 100 to 500 nM.
`CC(C)N(CC(F)(F)F)C(=N)OCc1nc(N)c2c(n1)N(c1ccc(N3C[C@@H](C)O[C@@H](C)C3)nc1)C(=O)C2(C)C` [Compound E191]: under setting [1], the IC50 was in the range of 100 to 500 nM.
Turning to `CC(C)N(CC(F)(F)F)C(=N)OCc1ncc2c(n1)N(c1ccc(OC3CCCC3)nc1)C(=O)C21CC1` [Compound E132], the IC50 under setting [1] lay within 100 to 500 nM.
Still for that read-out and setting: then `CNc1nc(COC(=N)N2CCC[C@@H]2C(F)(F)F)nc2c1C(C)(C)C(=O)N2c1ccc2c(c1)CCO2` [Compound E68], with less than 100 nM; and `COc1cc(F)ccc1N1CC(C)(C)c2c(NCC(F)(F)F)nc(COC(=N)N3CCC[C@@H]3C(F)(F)F)nc21` [Compound E208], with less than 100 nM; and `C[C@@H]1CN(c2ccc(N3C(=O)C4(CCCCC4)c4c(N)nc(COC(=N)N5CCC[C@@H]5C(F)(F)F)nc43)cn2)C[C@H](C)O1` [Compound E45], with less than 100 nM.
For the molecule `C[C@@H]1C[C@H](C)CN(c2ccc(N3C(=O)C(C)(C)c4c(N)nc(COC(=N)N5CCC[C@@H]5C(F)(F)F)nc43)cc2F)C1` [Compound E35], under setting [1], the IC50 was less than 100 nM.

These data come from US20250304571A1, “BIOLOGICALLY ACTIVE COMPOUNDS AND METHODS THEREOF” (Suzhou Keen Therapeutics Co., Ltd., priority 2022, published 2025).
